Measured values published in patent publication US5292901A, “Benzodioxole derivatives” (Eisai Co., Ltd., priority 1987, dated 1994).
Read-outs that look alike come from different tables or passages of the source.

Assays:
[1] = system: liver injury induced by D-galactosamine; assay: Experimental Example 1d: effect on liver injury induced by D-galactosamine in rats (group I-d); assay type: in vivo, male Fischer (F344) rats; details: Rattus norvegicus, Table 1d, D-galactosamine 300 mg/kg s.c., compound 50 mg/kg oral in distilled water or 0.5% methylcellulose, 48 h
Method: 300 mg/kg of D-galactosamine was administered to male Fischer (F344) rats weighing around 180 g by subcutaneous injection to induce liver injury. Each compound was dissolved in distilled water was given by oral administration in a dose of 50 mg/kg one hour after the injection of D-galactosamine.
The D-galactosamine was used in the form of a solution having a concentration of 200 mg/ml, obtained by dissolving D-galactosamine in a physiological saline solution to obtain a dilute D-galactosamine solution and adjusting the pH of the dilute solution to 7.0 with 10N aqueous potassium hydroxide.
Blood was collected from the rat's tail vein 48 h after the injection of D-galactosamine. The blood coagulation time was determined by the hepaplastin test (HPT) and GPT activity in the blood plasma was determined by an enzymatic method.

[2] = system: liver injury induced by D-galactosamine; assay: Experimental Example 1b: effect on liver injury induced by D-galactosamine in rats (group I-b); assay type: in vivo, male Fischer (F344) rats; details: Rattus norvegicus, po, 48 h, Table 1b, D-galactosamine 400 mg/kg; for inhibition in vivo at 100 mg/kg: compound 100 mg/kg in 0.5% methylcellulose; for inhibition in vivo at 50 mg/kg: values marked *: administration of 50 mg/kg
[3] = read-out: Inhibition ratio (%) GPT
[4] = read-out: Inhibition ratio (%) HPT

## N#CCS(=O)(=O)CCc1ccc2c(c1)OCO2 [Compound 37]
[1]; [3]
  inhibition in vivo at 50 mg/kg: 52%
[1]; [4]
  inhibition in vivo at 50 mg/kg: 44%

## N#CC(SCCc1ccc2c(c1)OCO2)C(=O)O (stereo not shown) [Compound 28]
[1]; [3]
  inhibition in vivo at 50 mg/kg: 44%
[1]; [4]
  inhibition in vivo at 50 mg/kg: 45%

## CC(=O)CS(=O)(=O)CCc1ccc2c(c1)OCO2 [Compound 34]
[1]; [3]
  inhibition in vivo at 50 mg/kg: 37%
[1]; [4]
  inhibition in vivo at 50 mg/kg: 17%

## CC(=O)CSCCc1ccc2c(c1)OCO2 [Example 1, [{2-(1,3-Benzodioxol-5-yl)ethyl}thio]propan-2-one]
[1]; [3]
  inhibition in vivo at 50 mg/kg: 89%
[1]; [4]
  inhibition in vivo at 50 mg/kg: 100%

## N#CC[S+]([O-])CCc1ccc2c(c1)OCO2 (stereo not shown) [Compound 33]
[1]; [3]
  inhibition in vivo at 50 mg/kg: 82%
[1]; [4]
  inhibition in vivo at 50 mg/kg: 78%

## CCS(=O)(=O)CCc1ccc2c(c1)OCO2 [Compound 35]
[1]; [3]
  inhibition in vivo at 50 mg/kg: 76%
[1]; [4]
  inhibition in vivo at 50 mg/kg: 60%

## O=C(O)CNC(=O)CSCCc1ccc2c(c1)OCO2 [Compound 23]
[2]; [3]
  inhibition in vivo at 100 mg/kg: 77%
[2]; [4]
  inhibition in vivo at 100 mg/kg: 92%

## c1ccc(CSCCc2ccc3c(c2)OCO3)nc1 [Example 7, 2-(1,3-Benzodioxol-5-yl)ethyl (pyridin-2-yl)methyl sulfide]
[1]; [3]
  inhibition in vivo at 50 mg/kg: 37%
[1]; [4]
  inhibition in vivo at 50 mg/kg: 58%

## OCCSCCc1ccc2c(c1)OCO2 [Compound 3]
[2]; [3]
  inhibition in vivo at 100 mg/kg: 97%
[2]; [4]
  inhibition in vivo at 100 mg/kg: 94%

## Cc1cc2c(cc1CCSCC(=O)O)OCO2 [Compound 16]
[1]; [3]
  inhibition in vivo at 50 mg/kg: 25%
[1]; [4]
  inhibition in vivo at 50 mg/kg: 41%

## CC(C)S(=O)(=O)CCc1ccc2c(c1)OCO2 [Compound 36]
[1]; [3]
  inhibition in vivo at 50 mg/kg: 59%
[1]; [4]
  inhibition in vivo at 50 mg/kg: 68%

## CN(C)C(=O)CCSCCc1ccc2c(c1)OCO2 [Compound 19]
[2]; [3]
  inhibition in vivo at 100 mg/kg: 69%
[2]; [4]
  inhibition in vivo at 100 mg/kg: 90%

## c1cc(CSCCc2ccc3c(c2)OCO3)ccn1 [Example 6, 2-(1,3-Benzodioxol-5-yl)ethyl (pyridin-4-yl)methyl sulfide]
[1]; [3]
  inhibition in vivo at 50 mg/kg: 64%
[1]; [4]
  inhibition in vivo at 50 mg/kg: 76%

## N#CCSCCc1ccc2c(c1)OCO2 [Example 2, [{2-(1,3-Benzodioxol-5-yl)ethyl}thio]acetonitrile]
[1]; [3]
  inhibition in vivo at 50 mg/kg: 88%
[1]; [4]
  inhibition in vivo at 50 mg/kg: 100%

## SCCc1ccc2c(c1)OCO2 [Compound 1, 2-(1,3-Benzodioxol-5-yl)ethanethiol]
[2]; [3]
  inhibition in vivo at 100 mg/kg: 91%
[2]; [4]
  inhibition in vivo at 100 mg/kg: 96%

## O=C(O)CSCCc1ccc2c(c1)OCO2 [Compound 8, Sodium [{2-(1,3-benzodioxol-5-yl)ethyl}thio]acetate]
[2]; [3]
  inhibition in vivo at 100 mg/kg: 97%
[2]; [4]
  inhibition in vivo at 100 mg/kg: 97%

## O=C(O)CCCCCSCCc1ccc2c(c1)OCO2 [Compound 12]
[2]; [3]
  inhibition in vivo at 50 mg/kg: 69%
[2]; [4]
  inhibition in vivo at 50 mg/kg: 75%

## COCCSCCc1ccc2c(c1)OCO2 [Compound 6]
[2]; [3]
  inhibition in vivo at 100 mg/kg: 79%
[2]; [4]
  inhibition in vivo at 100 mg/kg: 93%

## c1ncc(CSCCc2ccc3c(c2)OCO3)[nH]1 [Compound 8]
[1]; [3]
  inhibition in vivo at 50 mg/kg: 28%
[1]; [4]
  inhibition in vivo at 50 mg/kg: 61%

## CC1Oc2ccc(CCSCC(=O)O)cc2O1 (stereo not shown) [Example 12, Sodium [{2-(2-methyl-1,3-benzodioxol-5-yl)ethyl}-thio]acetate]
[1]; [3]
  inhibition in vivo at 50 mg/kg: 85%
[1]; [4]
  inhibition in vivo at 50 mg/kg: 85%

## [O-][S+](CCO)CCc1ccc2c(c1)OCO2 (stereo not shown) [Compound 27]
[2]; [3]
  inhibition in vivo at 100 mg/kg: 54%
[2]; [4]
  inhibition in vivo at 100 mg/kg: 65%

## CC(C)(SCCc1ccc2c(c1)OCO2)C(=O)O [Example 4, Sodium 2-methyl-2-[{2-(1,3-benzodioxol-5-yl)ethyl}thio]propionate]
[1]; [3]
  inhibition in vivo at 50 mg/kg: 84%
[1]; [4]
  inhibition in vivo at 50 mg/kg: 91%

## CCC(Cc1ccc2c(c1)OCO2)SCC(=O)O (stereo not shown) [Example 26, Sodium [[1-{(1,3-benzodioxol-5-yl)methyl}propyl]thio]acetate]
[1]; [3]
  inhibition in vivo at 50 mg/kg: 53%
[1]; [4]
  inhibition in vivo at 50 mg/kg: 48%
